From paper PMC3409661 (Radiation research, 2012)
Like-named read-outs stand apart in the source and are kept apart here.

Assays:
[1] = test system: CHO K1 cells; details: reported in one setting; cited from earlier work
[2] = test system: humans; details: cited from earlier work
[3] = test system: ICR mice; details: known radioprotectors, value quoted for comparison, no reference given; cited from earlier work
[4] = test system: ferret; details: ferret model, 0.5× mouse MTD; cited from earlier work
[5] = test system: rat; details: rat model, 0.5× mouse MTD; cited from earlier work
[6] = test system: ICR mice; assay: Mouse aminothiol toxicity assay; assay type: in vivo
[7] = test system: S. typhimurium strain TA98; assay type: cell-based, Salmonella typhimurium
[8] = test system: diploid human fibroblasts; assay: Human cell growth inhibition; assay type: cell-based; details: PrC-210 in medium for 30 h before cell counting
[9] = test system: S. typhimurium strain TA100; assay type: cell-based, Salmonella typhimurium
[10] = test system: p21; assay: Western blot for p21 expression in nuclear extracts; assay type: cell-based, human; details: 4.1 mM PrC-210 for 30 h vs untreated cells
[11] = test system: supercoiled pUC19 plasmid DNA; assay: Protection of plasmid DNA against ROS-induced nicking; assay type: biochemical; details: PrC-210 0–70 mM added before hydroxyl radical generating system
[12] = cited from earlier work
[13] = test system: ICR mice; assay: Mouse radiation survival assay; assay type: in vivo
[14] = test system: Sprague-Dawley rat dorsal skin; assay: Rat dorsal skin radiodermatitis assay; assay type: in vivo
[15] = Distribution of [14C] PrC-210 topically applied to rat skin; details: for Recovery (carcass) / Recovery (skin) = skin (dose site) + skin wash / Recovery (total): 48 h
[16] = pH and disulfide formation of aqueous PrC-210 solutions; assay type: physicochemical; details: for PrC-210 disulfide in solution: aqueous
[17] = test system: diploid human fibroblasts; assay: Flow cytometry cell-cycle analysis; assay type: cell-based
[18] = Group 2: 1850 mM dermal, without norepinephrine
[19] = Group 3: 1850 mM dermal, with 300 mM norepinephrine
[20] = 87 μM (so in the source), positive control

SMILES: NCCCNCCS [WR-1065, 2-[(aminopropyl)amino]ethanethiol]
- type of cell cycle block [1]: G2/M cell cycle block

SMILES: NCCCNCCSP(=O)(O)O [amifostine]
- systemic toxicities ([2]; human amifostine use): significant systemic toxicities (nausea/emesis, hypotension/fainting)
- efficacy when applied topically to skin or mucosa ([2]; humans): has not been effective
- dose reduction factor (DRF) [3]: 1.6
- retch/vomit response [4]: elicits both responses
- hypotension response [5]: elicits both responses

SMILES: CNCC(CS)CNC [PrC-210]
- i.p. MTD (= i.p. LD10 dose) ([6]; extrapolated from the best fit curve (Fig. 8A)): 422 μg/g BW
- LD10 dose ([6]; i.p., probit analysis of percentage survival data): 504 μg/g BW
- toxic response ([6]; single i.p. 500 μg/g BW): either a transient response in which the mice are sleepy but then rebound over several hours and survive, or they die within 1–2 h
- lethality ([6]; single i.p. 700 μg/g BW, severe muscle spasm then death within min): 100%
- Colonies/plate (mean ± SD) Strain TA98 −S9 ([7]; 30 μM): 43 ± 2 Colonies/plate
- Colonies/plate (mean ± SD) Strain TA98 +S9 ([7]; 100 μM): 64 ± 4 Colonies/plate
- Colonies/plate (mean ± SD) Strain TA98 −S9 ([7]; 100 μM): 51 ± 6 Colonies/plate
- Colonies/plate (mean ± SD) Strain TA98 +S9 ([7]; 400 μM): 55 ± 3 Colonies/plate
- Colonies/plate (mean ± SD) Strain TA98 −S9 ([7]; 400 μM): 58 ± 14 Colonies/plate
- Colonies/plate (mean ± SD) Strain TA98 +S9 ([7]; 1000 μM): 54 ± 6 Colonies/plate
- Colonies/plate (mean ± SD) Strain TA98 −S9 ([7]; 1000 μM): 53 ± 3 Colonies/plate
- Colonies/plate (mean ± SD) Strain TA98 +S9 ([7]; 4100 μM): 55 Colonies/plate
- Colonies/plate (mean ± SD) Strain TA98 −S9 ([7]; 4100 μM): 55 ± 5 Colonies/plate
- Colonies/plate (mean ± SD) Strain TA98 +S9 ([7]; 7000 μM): 65 ± 9 Colonies/plate
- Colonies/plate (mean ± SD) Strain TA98 −S9 ([7]; 7000 μM): 51 ± 5 Colonies/plate
- mutagenicity: frameshift mutations (strain TA98) ([7]; concentrations up to 7 mM): neither frameshift mutations
- IC70 dose, inhibition of cell growth [8]: 4.1 mM
- Colonies/plate (mean ± SD) Strain TA100 +S9 ([9]; 30 μM): 119 Colonies/plate
- Colonies/plate (mean ± SD) Strain TA100 −S9 ([9]; 30 μM): 121 ± 8 Colonies/plate
- Colonies/plate (mean ± SD) Strain TA100 +S9 ([9]; 100 μM): 127 ± 8 Colonies/plate
- Colonies/plate (mean ± SD) Strain TA100 −S9 ([9]; 100 μM): 116 ± 22 Colonies/plate
- Colonies/plate (mean ± SD) Strain TA100 +S9 ([9]; 400 μM): 144 ± 14 Colonies/plate
- Colonies/plate (mean ± SD) Strain TA100 −S9 ([9]; 400 μM): 128 Colonies/plate
- Colonies/plate (mean ± SD) Strain TA100 +S9 ([9]; 1000 μM): 148 ± 5 Colonies/plate
- Colonies/plate (mean ± SD) Strain TA100 −S9 ([9]; 1000 μM): 101 ± 19 Colonies/plate
- Colonies/plate (mean ± SD) Strain TA100 +S9 ([9]; 4100 μM): 115 ± 33 Colonies/plate
- Colonies/plate (mean ± SD) Strain TA100 −S9 ([9]; 4100 μM): 134 ± 20 Colonies/plate
- Colonies/plate (mean ± SD) Strain TA100 +S9 ([9]; 7000 μM): 149 ± 18 Colonies/plate
- Colonies/plate (mean ± SD) Strain TA100 −S9 ([9]; 7000 μM): 128 ± 11 Colonies/plate
- mutagenicity: point mutations (strain TA100) ([9]; concentrations up to 7 mM): nor point mutations
- hypotension response [5]: nor hypotension response
- p21 protein level in nuclear extracts [10]: significantly elevated
- protection of supercoiled plasmid DNA against ROS-induced nicking [11]: complete protection
- oral activity [12]: active when taken orally
- dose reduction factor (DRF) ([13]; i.p. 211 μg/g BW 30 min before increasing radiation doses, survival to day 35): 1.6
- survival ([13]; i.p. 211 μg/g BW (0.5× MTD best fit) 30 min before 8.63 Gy whole-body radiation): 98%
- survival ([13]; i.p. 252 μg/g BW 30 min before 8.75 Gy (otherwise 100% lethal)): 100%
- survival ([13]; i.p. 252 μg/g BW (0.5× MTD probit) 30 min before 8.63 Gy whole-body radiation): 100%
- protection against radiation dermatitis ([14]; 1 to 2 topical applications only): much less protection
- prevention of radiation dermatitis ([14]; four topical applications over 2 h before irradiation (Fig. 5F)): 98%
- prevention of radiation dermatitis, systemic administration ([14]; i.p. 200 μg/g BW 30 min before 17.3 Gy): complete prevention
- radiodermatitis prevention, structure-activity study ([14]; topical 370 mM, thiol plus charged alkyl-amine backbone (Fig. 6)): 100%
- protection against radiation dermatitis, aqueous vehicle ([14]; topical 1500 mM in vehicles containing 75% water): still conferred protection
- prevention of Grade 2–3 radiation dermatitis by increasing topical doses ([14]; topical application to rat skin before irradiation vs vehicle controls): completely prevented
- prevention of Grade 3 radiation dermatitis, topical ([14]; topical, at or above 370 mM, 17.3 Gy, scored 13 days after irradiation): completely prevented
- IC100 dose for radiation dermatitis ([14]; topical, vehicle 0:95:5 (ethanol:propylene glycol:water)): 1500 mM
- IC100 dose for radiation dermatitis ([14]; topical, vehicle 50:30:20 (ethanol:propylene glycol:water)): 370 mM
- systemic dose after topical application ([15]; 300 g rats, 1.1 mg absorbed, over 48 h (lowest)): 3.7 μg/g BW
- estimated mass that crossed the skin barrier and entered systemic circulation ([15]; Group 1, over 48 h (16.28 mg × 6.7%)): 1.1 mg
- Cmax (radioactivity in plasma) ([15]; Group 1: 370 mM dermal, 16.28 mg applied): 257 ng-eq/g
- Recovery (carcass) ([15]; Group 1: 370 mM dermal): 0.52%
- Recovery (skin) = skin (dose site) + skin wash ([15]; Group 1: 370 mM dermal): 41.54%
- Recovery (total) ([15]; Group 1: 370 mM dermal): 49.4%
- Recovery (carcass) [15, 18]: 1.84%
- Recovery (skin) = skin (dose site) + skin wash [15, 18]: 47.16%
- Recovery (total) [15, 18]: 66.0%
- estimated mass that crossed the skin barrier and entered systemic circulation ([15]; Group 3, over 48 h): 6.8 mg
- Cmax (radioactivity in plasma) ([15]; Group 3: 1850 mM dermal, 81.40 mg applied, with 300 mM norepinephrine): 726 ng-eq/g
- Recovery (carcass) [15, 19]: 1.53%
- Recovery (skin) = skin (dose site) + skin wash [15, 19]: 60.46%
- Recovery (total) [15, 19]: 70.0%
- share of absorbed radioactivity eliminated by the urine ([15]; after dermal dose): ≥ 90%
- transfer of topically applied PrC-210 into systemic circulation ([15]; over 48 h following topical administration, across groups): 6–15%
- 14C cpm in blood remaining soluble after TCA precipitation ([15]; rat blood samples, preliminary analysis (not shown)): less than 10%
- pH on dissolution in water ([16]; HCl salt dissolved in water): ~ 3.0
- PrC-210 disulfide in solution ([16]; pH 5.5, 1 week at room temperature in the dark): < 1%
- PrC-210 disulfide in solution ([16]; pH 8.0, 1 week at room temperature in the dark): > 98%
- S-phase fraction of cells after washout ([17]; 4.1 mM PrC-210 30 h, then washout and fresh medium 48 h): 40%
- S-phase fraction of cells ([17]; 4.1 mM PrC-210 for 30 h, control 53%): 8%
- type of cell cycle block ([17]; PrC-210-treated normal human fibroblasts): G1/S cell cycle block

SMILES: Nc1cccc2cc3ccccc3cc12 [Aminoanthracene, reference compound]
- Colonies/plate (mean ± SD) Strain TA98 +S9 [7, 20]: 177 Colonies/plate
- Colonies/plate (mean ± SD) Strain TA98 −S9 [7, 20]: >1800 Colonies/plate
- Colonies/plate (mean ± SD) Strain TA100 +S9 [9, 20]: 570 ± 90 Colonies/plate
